Measurements from ChEMBL document CHEMBL1201862, “PubChem BioAssay data set” (2004).
Activity calls are given as the source filed them.

What was measured:
Format in all cases: functional
[1] = molecular target: T1, Tyrosine-protein kinase receptor TYRO3 (Homo sapiens, UniProt Q06418);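 note: TYRO3 value obtained as one member of a kinome-wide profiling panel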
T1 sequence (Q06418 whole entry): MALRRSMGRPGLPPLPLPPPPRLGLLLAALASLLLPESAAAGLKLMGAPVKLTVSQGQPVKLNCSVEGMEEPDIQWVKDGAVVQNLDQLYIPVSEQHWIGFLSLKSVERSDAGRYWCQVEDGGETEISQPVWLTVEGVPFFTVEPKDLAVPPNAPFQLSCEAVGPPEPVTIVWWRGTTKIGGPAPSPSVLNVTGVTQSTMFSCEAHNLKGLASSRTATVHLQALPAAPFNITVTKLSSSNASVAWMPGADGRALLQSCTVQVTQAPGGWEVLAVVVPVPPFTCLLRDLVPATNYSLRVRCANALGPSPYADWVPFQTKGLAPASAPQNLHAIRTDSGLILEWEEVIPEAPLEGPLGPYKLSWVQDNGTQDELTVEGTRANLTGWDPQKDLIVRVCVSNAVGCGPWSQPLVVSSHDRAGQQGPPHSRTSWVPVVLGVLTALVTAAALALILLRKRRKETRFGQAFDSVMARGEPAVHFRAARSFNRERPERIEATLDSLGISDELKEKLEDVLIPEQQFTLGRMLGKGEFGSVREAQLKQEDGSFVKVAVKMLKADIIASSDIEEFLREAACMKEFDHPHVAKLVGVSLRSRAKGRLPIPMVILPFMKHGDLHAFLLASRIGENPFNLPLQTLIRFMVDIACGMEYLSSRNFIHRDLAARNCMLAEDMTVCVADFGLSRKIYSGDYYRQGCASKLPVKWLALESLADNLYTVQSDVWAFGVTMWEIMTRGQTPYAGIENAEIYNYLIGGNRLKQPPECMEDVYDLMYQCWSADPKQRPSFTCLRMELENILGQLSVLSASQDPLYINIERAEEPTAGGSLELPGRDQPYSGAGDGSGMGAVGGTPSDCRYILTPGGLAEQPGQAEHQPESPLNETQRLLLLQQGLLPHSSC

[2] = molecular target: Megakaryocyte-associated tyrosine-protein kinase (Homo sapiens, UniProt P42679);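 note: affinity measured as one member of a kinase panel (Navigating the Kinome) against MATK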
[3] = molecular target: T2, Serine/threonine-protein kinase Chk1 (Homo sapiens, UniProt O14757);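 note: measured as one member of a kinome-wide kinase profiling panel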
T2 sequence (O14757 whole entry): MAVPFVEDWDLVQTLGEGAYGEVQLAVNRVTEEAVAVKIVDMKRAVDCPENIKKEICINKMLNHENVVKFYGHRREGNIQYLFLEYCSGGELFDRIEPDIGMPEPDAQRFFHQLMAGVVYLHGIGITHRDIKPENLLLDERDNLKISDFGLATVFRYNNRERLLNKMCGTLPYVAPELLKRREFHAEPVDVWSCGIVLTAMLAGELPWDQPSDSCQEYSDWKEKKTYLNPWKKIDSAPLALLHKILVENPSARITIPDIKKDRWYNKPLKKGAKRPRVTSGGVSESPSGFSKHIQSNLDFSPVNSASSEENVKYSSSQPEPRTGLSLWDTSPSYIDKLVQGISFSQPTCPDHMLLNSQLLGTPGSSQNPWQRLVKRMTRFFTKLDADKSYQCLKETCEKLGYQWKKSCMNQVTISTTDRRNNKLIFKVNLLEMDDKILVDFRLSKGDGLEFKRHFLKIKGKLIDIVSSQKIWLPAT

[4] = molecular target: Ribosomal protein S6 kinase alpha-5 (Homo sapiens, UniProt O75582)
Sequence of Ribosomal protein S6 kinase alpha-5 (O75582 whole entry): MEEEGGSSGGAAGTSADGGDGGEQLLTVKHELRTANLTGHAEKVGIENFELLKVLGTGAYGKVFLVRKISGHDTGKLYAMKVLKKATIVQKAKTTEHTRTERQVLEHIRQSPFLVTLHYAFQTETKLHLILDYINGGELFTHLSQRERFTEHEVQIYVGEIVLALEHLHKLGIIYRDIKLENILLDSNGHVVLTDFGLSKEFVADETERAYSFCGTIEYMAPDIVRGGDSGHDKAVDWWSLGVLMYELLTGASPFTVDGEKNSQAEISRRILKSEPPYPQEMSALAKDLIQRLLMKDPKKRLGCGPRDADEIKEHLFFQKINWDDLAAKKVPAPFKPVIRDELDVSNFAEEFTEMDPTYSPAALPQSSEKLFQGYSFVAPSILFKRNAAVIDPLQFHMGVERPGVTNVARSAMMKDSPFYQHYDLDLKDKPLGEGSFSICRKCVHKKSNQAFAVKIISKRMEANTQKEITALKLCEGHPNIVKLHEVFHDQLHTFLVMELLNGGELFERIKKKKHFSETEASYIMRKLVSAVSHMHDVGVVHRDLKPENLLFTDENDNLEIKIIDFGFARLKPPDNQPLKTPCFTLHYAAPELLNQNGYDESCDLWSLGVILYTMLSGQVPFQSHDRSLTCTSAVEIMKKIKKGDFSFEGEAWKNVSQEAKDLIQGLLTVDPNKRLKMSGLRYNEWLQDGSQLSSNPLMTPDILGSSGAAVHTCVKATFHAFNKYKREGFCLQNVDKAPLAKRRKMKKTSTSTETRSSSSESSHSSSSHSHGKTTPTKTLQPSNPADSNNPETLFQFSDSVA

[5] = molecular target: Serine/threonine-protein kinase N2 (Homo sapiens, UniProt Q16513)
[6] = molecular target: MAP kinase-activated protein kinase 5 (Homo sapiens, UniProt Q8IW41);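 note: measured as one member of a kinome panel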
[7] = molecular target: Tyrosine-protein kinase JAK2 (Homo sapiens, UniProt O60674);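 note: JAK2 tested as one member of a kinase panel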
Sequence of Tyrosine-protein kinase JAK2 (O60674 whole entry): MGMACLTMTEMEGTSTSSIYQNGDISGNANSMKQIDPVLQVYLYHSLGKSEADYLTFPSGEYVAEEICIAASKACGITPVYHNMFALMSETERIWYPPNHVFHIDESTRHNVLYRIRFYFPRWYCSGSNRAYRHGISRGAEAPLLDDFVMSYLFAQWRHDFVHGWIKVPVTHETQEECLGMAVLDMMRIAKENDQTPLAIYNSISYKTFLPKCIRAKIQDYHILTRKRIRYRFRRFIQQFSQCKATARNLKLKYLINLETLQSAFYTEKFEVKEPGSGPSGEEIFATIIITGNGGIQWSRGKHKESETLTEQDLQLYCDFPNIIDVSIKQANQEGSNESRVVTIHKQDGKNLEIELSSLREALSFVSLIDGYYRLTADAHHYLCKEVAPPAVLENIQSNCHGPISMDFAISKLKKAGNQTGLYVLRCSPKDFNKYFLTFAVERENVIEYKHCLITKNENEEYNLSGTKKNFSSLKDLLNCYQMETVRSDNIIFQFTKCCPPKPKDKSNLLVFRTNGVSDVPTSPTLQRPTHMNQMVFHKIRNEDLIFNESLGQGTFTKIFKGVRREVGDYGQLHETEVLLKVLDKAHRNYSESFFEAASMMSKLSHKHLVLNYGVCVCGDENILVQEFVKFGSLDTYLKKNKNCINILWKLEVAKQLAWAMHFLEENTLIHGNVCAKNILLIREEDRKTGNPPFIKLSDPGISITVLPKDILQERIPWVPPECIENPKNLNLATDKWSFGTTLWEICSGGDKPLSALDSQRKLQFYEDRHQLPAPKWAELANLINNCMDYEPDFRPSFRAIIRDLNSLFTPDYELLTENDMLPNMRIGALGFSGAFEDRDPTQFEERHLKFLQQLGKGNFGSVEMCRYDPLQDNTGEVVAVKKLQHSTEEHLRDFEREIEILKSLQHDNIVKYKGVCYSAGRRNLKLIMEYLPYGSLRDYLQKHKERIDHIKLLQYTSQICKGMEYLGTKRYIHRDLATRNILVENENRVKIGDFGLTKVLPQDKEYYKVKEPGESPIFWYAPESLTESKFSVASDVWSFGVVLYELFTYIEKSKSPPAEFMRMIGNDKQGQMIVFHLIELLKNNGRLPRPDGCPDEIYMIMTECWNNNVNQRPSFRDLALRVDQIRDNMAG

[8] = molecular target: Tyrosine-protein kinase ABL1 (Homo sapiens, UniProt P00519)
Sequence of Tyrosine-protein kinase ABL1 (P00519 whole entry): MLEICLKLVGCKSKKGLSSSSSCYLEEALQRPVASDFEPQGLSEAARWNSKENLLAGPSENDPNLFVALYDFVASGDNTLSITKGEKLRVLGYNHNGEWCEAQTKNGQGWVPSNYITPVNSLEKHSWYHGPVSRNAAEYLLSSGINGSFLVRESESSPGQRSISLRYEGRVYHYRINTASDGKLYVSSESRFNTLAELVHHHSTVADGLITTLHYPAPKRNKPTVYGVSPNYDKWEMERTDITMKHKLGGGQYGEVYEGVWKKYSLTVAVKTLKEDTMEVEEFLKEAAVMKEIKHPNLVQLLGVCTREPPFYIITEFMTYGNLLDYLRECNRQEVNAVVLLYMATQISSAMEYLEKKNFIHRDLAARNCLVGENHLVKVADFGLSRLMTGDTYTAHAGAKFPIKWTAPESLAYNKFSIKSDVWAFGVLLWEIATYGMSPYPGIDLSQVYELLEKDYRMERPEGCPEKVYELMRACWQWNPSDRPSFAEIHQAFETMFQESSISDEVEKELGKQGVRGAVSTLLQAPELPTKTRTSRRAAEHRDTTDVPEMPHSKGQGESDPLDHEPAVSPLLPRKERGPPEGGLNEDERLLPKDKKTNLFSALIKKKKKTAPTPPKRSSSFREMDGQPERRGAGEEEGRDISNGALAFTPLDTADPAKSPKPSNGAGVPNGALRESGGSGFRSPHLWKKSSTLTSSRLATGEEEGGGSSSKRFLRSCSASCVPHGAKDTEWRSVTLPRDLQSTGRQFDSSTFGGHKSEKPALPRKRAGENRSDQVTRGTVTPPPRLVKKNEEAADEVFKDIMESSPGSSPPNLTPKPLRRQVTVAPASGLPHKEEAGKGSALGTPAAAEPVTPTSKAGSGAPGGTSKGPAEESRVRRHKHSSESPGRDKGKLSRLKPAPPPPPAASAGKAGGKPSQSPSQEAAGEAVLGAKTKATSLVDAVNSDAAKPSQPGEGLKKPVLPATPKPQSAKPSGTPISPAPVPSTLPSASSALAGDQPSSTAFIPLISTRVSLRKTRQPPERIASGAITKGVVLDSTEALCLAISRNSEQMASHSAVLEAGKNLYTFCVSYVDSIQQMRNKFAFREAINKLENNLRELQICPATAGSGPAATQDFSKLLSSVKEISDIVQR

[9] = molecular target: Mitogen-activated protein kinase kinase kinase 20 (Homo sapiens, UniProt Q9NYL2)
[10] = molecular target: Glycogen synthase kinase-3 alpha (Homo sapiens, UniProt P49840);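 note: GSK3A result taken from a broad kinome-wide kinase panel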
Sequence of Glycogen synthase kinase-3 alpha (P49840 whole entry): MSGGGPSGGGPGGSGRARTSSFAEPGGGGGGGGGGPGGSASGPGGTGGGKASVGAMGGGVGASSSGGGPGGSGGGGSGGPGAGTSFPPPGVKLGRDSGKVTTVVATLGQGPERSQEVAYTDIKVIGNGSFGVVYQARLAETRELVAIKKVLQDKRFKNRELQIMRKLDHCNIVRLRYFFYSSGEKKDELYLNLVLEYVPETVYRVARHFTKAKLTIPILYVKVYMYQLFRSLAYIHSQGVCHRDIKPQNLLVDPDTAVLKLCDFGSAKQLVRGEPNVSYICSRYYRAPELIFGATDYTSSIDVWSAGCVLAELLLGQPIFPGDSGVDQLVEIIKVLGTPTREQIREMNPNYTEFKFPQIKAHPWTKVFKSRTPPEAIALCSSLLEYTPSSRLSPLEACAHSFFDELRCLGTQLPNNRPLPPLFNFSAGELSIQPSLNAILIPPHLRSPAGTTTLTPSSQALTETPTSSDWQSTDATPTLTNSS

[11] = molecular target: MAP kinase-interacting serine/threonine-protein kinase 2 (Homo sapiens, UniProt Q9HBH9)
[12] = molecular target: Platelet-derived growth factor receptor beta (Homo sapiens, UniProt P09619);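 note: value comes from a kinome panel, with PDGFRB tested as one panel member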
Sequence of Platelet-derived growth factor receptor beta (P09619 whole entry): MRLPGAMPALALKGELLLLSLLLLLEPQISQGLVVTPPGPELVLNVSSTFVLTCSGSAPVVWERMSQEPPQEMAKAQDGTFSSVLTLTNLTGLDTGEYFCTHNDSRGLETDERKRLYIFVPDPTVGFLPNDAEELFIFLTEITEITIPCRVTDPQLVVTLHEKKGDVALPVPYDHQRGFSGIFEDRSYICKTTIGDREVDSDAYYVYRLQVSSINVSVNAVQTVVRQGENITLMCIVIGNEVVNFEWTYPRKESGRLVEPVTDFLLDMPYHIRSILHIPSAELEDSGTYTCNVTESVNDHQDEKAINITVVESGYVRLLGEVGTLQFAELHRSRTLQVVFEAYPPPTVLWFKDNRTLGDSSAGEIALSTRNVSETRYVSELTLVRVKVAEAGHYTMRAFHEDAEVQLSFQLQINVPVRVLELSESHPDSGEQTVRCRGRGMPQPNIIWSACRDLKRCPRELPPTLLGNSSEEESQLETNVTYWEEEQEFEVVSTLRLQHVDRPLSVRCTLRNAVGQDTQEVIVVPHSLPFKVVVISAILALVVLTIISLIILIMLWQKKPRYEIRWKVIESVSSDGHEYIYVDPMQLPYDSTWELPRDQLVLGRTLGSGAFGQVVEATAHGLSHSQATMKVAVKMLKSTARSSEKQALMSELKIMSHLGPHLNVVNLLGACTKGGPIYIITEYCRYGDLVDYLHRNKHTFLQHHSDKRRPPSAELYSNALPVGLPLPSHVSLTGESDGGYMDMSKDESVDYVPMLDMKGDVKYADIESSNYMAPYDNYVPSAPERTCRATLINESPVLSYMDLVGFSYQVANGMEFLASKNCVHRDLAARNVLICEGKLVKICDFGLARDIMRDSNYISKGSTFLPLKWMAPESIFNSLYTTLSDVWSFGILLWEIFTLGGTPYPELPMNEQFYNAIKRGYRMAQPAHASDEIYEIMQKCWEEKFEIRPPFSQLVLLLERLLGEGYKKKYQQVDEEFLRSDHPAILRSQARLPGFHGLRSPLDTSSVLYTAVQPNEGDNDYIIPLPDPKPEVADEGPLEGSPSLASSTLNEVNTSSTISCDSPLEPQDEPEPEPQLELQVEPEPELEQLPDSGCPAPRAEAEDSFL

[13] = molecular target: T3, Sentrin-specific protease 7 (Homo sapiens, UniProt Q9BQF6);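 note: Luminescence-based dose-response confirmation of ultra-high-throughput screening hits, measuring inhibition of SENP7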
T3 sequence (Q9BQF6 whole entry): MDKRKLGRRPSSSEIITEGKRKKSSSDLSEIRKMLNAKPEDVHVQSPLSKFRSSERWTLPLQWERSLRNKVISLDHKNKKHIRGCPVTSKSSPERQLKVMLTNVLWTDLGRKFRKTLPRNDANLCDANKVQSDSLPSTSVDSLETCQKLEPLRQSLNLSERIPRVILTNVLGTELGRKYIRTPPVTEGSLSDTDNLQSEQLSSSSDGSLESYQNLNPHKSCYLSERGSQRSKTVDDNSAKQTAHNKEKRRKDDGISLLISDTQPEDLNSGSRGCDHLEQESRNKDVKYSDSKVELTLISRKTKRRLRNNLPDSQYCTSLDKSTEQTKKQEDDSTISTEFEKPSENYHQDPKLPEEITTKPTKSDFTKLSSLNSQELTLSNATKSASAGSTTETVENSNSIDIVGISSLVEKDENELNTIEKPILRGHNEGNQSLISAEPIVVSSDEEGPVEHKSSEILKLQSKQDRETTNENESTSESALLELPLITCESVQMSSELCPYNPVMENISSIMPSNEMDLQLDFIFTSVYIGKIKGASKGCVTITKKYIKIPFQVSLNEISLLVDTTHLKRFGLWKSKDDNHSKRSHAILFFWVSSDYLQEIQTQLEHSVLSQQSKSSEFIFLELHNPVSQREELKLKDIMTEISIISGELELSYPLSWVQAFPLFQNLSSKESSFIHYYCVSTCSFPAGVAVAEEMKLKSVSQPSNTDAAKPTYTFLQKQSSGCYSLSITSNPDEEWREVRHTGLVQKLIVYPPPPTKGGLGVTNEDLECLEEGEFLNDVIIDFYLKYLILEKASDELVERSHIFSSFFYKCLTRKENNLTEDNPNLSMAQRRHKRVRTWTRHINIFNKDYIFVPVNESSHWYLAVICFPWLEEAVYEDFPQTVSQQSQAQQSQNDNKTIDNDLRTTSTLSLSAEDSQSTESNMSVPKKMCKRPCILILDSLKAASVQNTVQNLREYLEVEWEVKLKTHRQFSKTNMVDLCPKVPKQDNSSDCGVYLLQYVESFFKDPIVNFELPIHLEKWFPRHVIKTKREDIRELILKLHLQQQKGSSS

Row | Compound | Ki [1] | Ki [2] | Ki [3] | Ki [4] | Ki [5] | Ki [6] | Ki [7] | Ki [8] | Ki [9] | Ki [10] | Ki [11] | Ki [12] | IC50 [13]
1 | Cc1n[nH]c2ccc(-c3cncc(OCC(N)Cc4ccc(Cl)c(Cl)c4)c3)cc12 (stereo not drawn) | > 2000 nM (inactive) | > 2000 nM (inactive) | 7940 nM (active) | 1.26 nM (active) | 20 nM (active) | > 1580 nM (inactive) | > 1580 nM (inactive) | > 631 nM (inactive) | 7940 nM (active) | 100 nM (active) | 251 nM (active) |  | 
2 | [2H]C([2H])([2H])Oc1cccc(C(C)NC(=O)c2sc(-c3ccncc3)nc2C)c1 (stereo not drawn) | > 3160 nM (inactive) |  | > 3160 nM (inactive) |  |  |  | > 2510 nM (inactive) | > 2510 nM (inactive) |  | 3160 nM (active) |  | > 2000 nM (inactive) | 
3 | COc1ccc(-n2c(NC(=O)c3ccco3)c(C#N)c3nc4ccccc4nc32)cc1 |  |  |  |  |  |  |  |  |  |  |  |  | 5780 nM (active)
